Reference: ChEMBL document CHEMBL3507680, “University of Dundee, Gates Library screen for HepG2 cell viability”

Test: Human HepG2 cell viability assay in 384 well format
Type: toxicity, cell-based
Parameters: dose 125 nL, time 70.5 hour; concentration not given beside the values
Conditions: HepG2 cells, read-out: Inhibition
In the case of `Cc1nc(N2CCOCC2)nc2c1CCN(C(=O)N1CCCC1)CC2`, the cytotoxicity at 70.5 h is reported as -2.06%.
Work on `COc1ccc(C)cc1CN1CCCC1c1noc(C2CC2)n1` (stereo unspecified) yielded a cytotoxicity at 70.5 h of -1.93%.
In the case of `CC(=O)CN1CC2(CCNCC2)COc2ccccc2S1(=O)=O`, the cytotoxicity at 70.5 h is reported as -12.2%.
Work on `c1cnc(N2CCN(Cn3nccc3-c3cccnc3)CC2)nc1` yielded a cytotoxicity at 70.5 h of 5.37%.
With `Cc1nc(CNC(=O)NC2CC(C)(C)OC2(C)C)sc1C` (stereo unspecified) the cytotoxicity at 70.5 h was -9.18%.
`CC(=O)c1ccc(C(=O)NCC2Cc3ccccc3O2)s1` (stereo unspecified) gave a cytotoxicity at 70.5 h of 23.7%.
`CC(C)c1ncncc1C(=O)NCCN1CCCS1(=O)=O` gave a cytotoxicity at 70.5 h of -12.7%.
`c1ncc(-c2ccc(C3CNCCO3)nc2)cn1` (stereo unspecified) showed a cytotoxicity at 70.5 h of -3.27%.
`NC1CCN(C2CCN(c3ccc(-c4ccco4)cc3)CC2)CC1` showed a cytotoxicity at 70.5 h of -12%.
With `CCN(c1ccc(C(=O)NCc2ccnc(C)n2)cc1)C(C)C` the cytotoxicity at 70.5 h was -8.68%.
`O=C(NCc1cccnc1-n1cncn1)c1cncc(Br)c1` gave a cytotoxicity at 70.5 h of 0.0598%.
With `CC(NCCN1CCN(C(=O)C2CCCC2)CC1)c1ccccn1` (stereo unspecified) the cytotoxicity at 70.5 h was -2.99%.
`Cc1nnc(C2Cc3ccccc3CN2Cc2ncc(C(C)(C)C)o2)o1` (stereo unspecified) gave a cytotoxicity at 70.5 h of 34.5%.
In the case of `CCc1ccc(C2c3nc[nH]c3CCN2Cc2nccn2CC)nc1` (stereo unspecified), the cytotoxicity at 70.5 h is reported as 33.1%.
For `Cc1cccc2c1nc(CCO)n2-c1ccc(N)nc1`, the cytotoxicity at 70.5 h was -8.34%.
For `CCC(C)(C)C(=O)N1C[C@@H]2C[C@@H](c3nnc(C)[nH]3)O[C@@H]2C1`, the cytotoxicity at 70.5 h was -8.87%.
In the case of `Cc1nc2ccc(C(=O)N3C[C@@H](O)[C@H](N4CCOCC4)C3)cc2[nH]1`, the cytotoxicity at 70.5 h is reported as 12%.
With `CC(=O)N(Cc1noc(C2CC2)n1)C1CCN(Cc2ccccc2)C1` (stereo unspecified) the cytotoxicity at 70.5 h was -5.69%.
For `COCCCNc1nc(CNC(=O)C2CCC2)cc(-c2ccco2)n1`, the cytotoxicity at 70.5 h was -5.78%.
With `CN(C)c1nccc(C2CCCCN2Cc2cnn3cccnc23)n1` (stereo unspecified) the cytotoxicity at 70.5 h was -7.45%.
`O=C(c1cccnc1)N1CCN2C[C@H](OCc3ccccc3)C[C@H]2C1` gave a cytotoxicity at 70.5 h of -5.95%.
`CC(C)CN(c1cn[nH]c1)S(=O)(=O)c1cccc(C#N)c1` gave a cytotoxicity at 70.5 h of -6.94%.
For `COCCN1CC(=O)c2sc(NC(C)C)nc2C1`, the cytotoxicity at 70.5 h was 2.05%.
`CC(C)n1cc(CN2CCCN(C(=O)c3ccco3)CC2)cn1` gave a cytotoxicity at 70.5 h of 21%.
With `CCCOc1cc(F)ccc1NC(=O)NCc1noc(C)n1` the cytotoxicity at 70.5 h was -3.88%.
For `O=C(NC[C@H]1OC[C@@H](NC2COC2)[C@@H]1O)c1ccccc1`, the cytotoxicity at 70.5 h was -6.48%.
Work on `CSc1ccsc1C(=O)NC(C)c1ccc2c(c1)CCC(=O)N2` (stereo unspecified) yielded a cytotoxicity at 70.5 h of 11.2%.
In the case of `CN(Cc1cccc(OC(F)(F)F)c1)C(=O)c1ccncc1F`, the cytotoxicity at 70.5 h is reported as -4.4%.
In the case of `CCCn1cc(-c2ccnc(NC3CCc4ccccc4C3)n2)c(C)n1` (stereo unspecified), the cytotoxicity at 70.5 h is reported as 19.3%.
`O=C(c1cccs1)N1CCC2(CC1)CN(c1ccsc1)C(=O)CO2` gave a cytotoxicity at 70.5 h of -8.69%.
For `CC(C)NC(=O)N1CCCn2cnc(CO)c2C1`, the cytotoxicity at 70.5 h was 6.26%.
With `CC(C)N(C)Cc1ccccc1CNc1ccc2nncn2n1` the cytotoxicity at 70.5 h was -12%.
In the case of `COc1cccc2c1OCC(CNC(=O)CSc1nc(N)n[nH]1)C2` (stereo unspecified), the cytotoxicity at 70.5 h is reported as -12%.
For `CN(CCCc1cc(-c2ccc(F)cc2)n(C)n1)CC(=O)NC(N)=O`, the cytotoxicity at 70.5 h was -8.03%.
With `Cc1ccc2nc(CN3CCC(O)(Cn4ccnc4)CC3)cc(O)c2c1` the cytotoxicity at 70.5 h was -7.59%.
With `Cc1cnn(CC2CCCN2Cc2ncc(-c3ccc(F)cc3)o2)c1` (stereo unspecified) the cytotoxicity at 70.5 h was 24%.
For `COc1c(CNCCNC(=O)c2ccccc2F)c(C)nn1C`, the cytotoxicity at 70.5 h was -15.6%.
`CC(C)[C@H]1COC(=O)N1Cc1nnc(-c2ccccc2)o1` showed a cytotoxicity at 70.5 h of -1.91%.
For `CCc1nc(CN(C(C)=O)C2CCN(CCc3ccccc3)C2)no1` (stereo unspecified), the cytotoxicity at 70.5 h was -5%.
In the case of `O=S1(=O)N(c2ccccc2)C[C@@H](O)[C@]12CCNC2`, the cytotoxicity at 70.5 h is reported as -3.92%.
For `COCc1nn(C)c2c1CN(Cc1cnn(C)c1)CC2`, the cytotoxicity at 70.5 h was -11.4%.
`CCNC(=O)[C@@H]1C[C@H](N)CN1C(=O)c1c[nH]c2ccccc12` gave a cytotoxicity at 70.5 h of -0.954%.
With `CC(=O)c1cccc(S(=O)(=O)N2CCC(c3n[nH]c(C)n3)CC2)c1` the cytotoxicity at 70.5 h was 2.75%.
`Cc1nn(CCNC(C)Cn2cncn2)c(C)c1Cl` (stereo unspecified) showed a cytotoxicity at 70.5 h of 7.1%.
Compound `Cn1ccnc1C(=O)N1CCC2(CCN2Cc2ccc(F)cc2)C1` (stereo unspecified) has a cytotoxicity at 70.5 h of -3.38%.
Compound `COCCN(Cc1ccc(F)cc1Cl)C(=O)c1cnn(C)c1C` has a cytotoxicity at 70.5 h of 7.76%.
In the case of `Cc1cc(NC(=O)NCCc2ccc3c(c2)OCCO3)n(C)n1`, the cytotoxicity at 70.5 h is reported as -4.79%.
In the case of `O=C(Cc1cn2ccccc2n1)N1CCCC(n2cccn2)C1` (stereo unspecified), the cytotoxicity at 70.5 h is reported as 23.8%.
Work on `CC(c1ccccc1Cl)N(C(=O)CSCC(N)=O)C1CC1` (stereo unspecified) yielded a cytotoxicity at 70.5 h of 12.5%.
For `COc1ccc(CNc2cc3[nH]c(O)nc3cc2C)cc1`, the cytotoxicity at 70.5 h was -5.05%.
`COc1cc(C(=O)NS(=O)(=O)c2cccc(C#N)c2)cc(OC)c1C` gave a cytotoxicity at 70.5 h of -9.63%.
For `COc1ccccc1CCNS(=O)(=O)N1CCOCC1`, the cytotoxicity at 70.5 h was -11.8%.
With `CCS(=O)(=O)c1ccccc1N1CCC(NC(=O)C2CC2)CC1` the cytotoxicity at 70.5 h was 1.87%.
`C[C@H]1C[C@H]2CN(C(=O)CCc3ccccc3)CC[C@H]2O1` showed a cytotoxicity at 70.5 h of -11.5%.
For `COc1ccc2c(c1)OCC(CNC1CCc3ncnn3C1)=C2` (stereo unspecified), the cytotoxicity at 70.5 h was -0.263%.
For `NC(=O)C1CCN(CCc2ccc(NC(=O)C3CC3)cc2)CC1`, the cytotoxicity at 70.5 h was -3.12%.
For `Cc1ccc(C(=O)N2CCC3(CCCC3)CC2)c(=O)[nH]1`, the cytotoxicity at 70.5 h was -99.3%.
`O=C(CS(=O)(=O)C1CCCC1)NC1CCCc2cc(OC(F)F)ccc21` (stereo unspecified) showed a cytotoxicity at 70.5 h of -9.47%.
In the case of `CC(=O)N1C[C@H]2CCCN(Cc3ccc(C)o3)[C@H]2C1`, the cytotoxicity at 70.5 h is reported as -10.5%.
For `Cc1cnn(CC2CN(Cc3nnc(C4CC4)n3C)CCO2)c1` (stereo unspecified), the cytotoxicity at 70.5 h was -4.23%.
`CS(=O)(=O)CCC(=O)N1CCC2(CCCN(C3CCOCC3)C2=O)C1` (stereo unspecified) showed a cytotoxicity at 70.5 h of -9.61%.
In the case of `CN(Cc1cccs1)C(=O)Cn1cc(NC(=O)C(C)(C)C)cn1`, the cytotoxicity at 70.5 h is reported as -7.51%.
Work on `Cc1ccc(C(=O)N2CCCCC2CN(C)C)cc1` (stereo unspecified) yielded a cytotoxicity at 70.5 h of 4.31%.
With `CN(C)CCN1Cc2ncn(C)c2C(COCC(=O)N(C)C)C1` (stereo unspecified) the cytotoxicity at 70.5 h was -8.47%.
In the case of `CN(C)c1ccc(CN2C[C@H]3CC[C@@H]2CN(C2CCOCC2)C3)cn1`, the cytotoxicity at 70.5 h is reported as -3.42%.
In the case of `Cc1ccc2c(c1)c(C)cc(=O)n2CCC(=O)O`, the cytotoxicity at 70.5 h is reported as -6.14%.
Compound `Brc1ccc(-c2nnc(CN(Cc3cccs3)CC3CCCO3)o2)s1` (stereo unspecified) has a cytotoxicity at 70.5 h of -14.5%.
`Cn1cc(NC(=O)N2CCCC2c2cccnc2)ccc1=O` (stereo unspecified) gave a cytotoxicity at 70.5 h of -3.14%.
`CN1N=C(C(=O)N2CCCC(CCc3ccccc3F)C2)CCC1=O` (stereo unspecified) gave a cytotoxicity at 70.5 h of -5.83%.
Work on `Fc1ccc(CN2CCC3(CC2)CCN(Cc2nccs2)CC3)cc1` yielded a cytotoxicity at 70.5 h of 1.45%.
In the case of `CCN1CCN(Cc2nc(CCc3ccccc3)n[nH]2)CC1`, the cytotoxicity at 70.5 h is reported as 29.9%.
Compound `N#Cc1ccc(CN2CCNC(=O)C2c2cccs2)cc1` (stereo unspecified) has a cytotoxicity at 70.5 h of -3.15%.
For `CCn1cc(C(=O)n2nc(C)cc2C)c(S(=O)(=O)N2CCCCC2)n1`, the cytotoxicity at 70.5 h was -3.56%.
For `COc1ncccc1C(=O)N1CC(c2nc(-c3ccccn3)no2)C1`, the cytotoxicity at 70.5 h was 19.5%.
For `COc1ccc2c(c1)C(C(=O)NCCCN1CCN(C)CC1)CC(=O)N2` (stereo unspecified), the cytotoxicity at 70.5 h was -25%.
Work on `CCCNC(=O)C1CCN(CC(O)c2ccccc2C(F)(F)F)CC1` (stereo unspecified) yielded a cytotoxicity at 70.5 h of 0.668%.
For `O=C(c1ccnnc1)N1C[C@H](OCC2CC2)[C@H]2COC[C@H]21`, the cytotoxicity at 70.5 h was -13.5%.
`Cc1ncsc1CNc1ccn(Cc2ccccc2)n1` showed a cytotoxicity at 70.5 h of 6.63%.
For `Cc1ccc(S(=O)(=O)N(C)CC(C)O)c(F)c1` (stereo unspecified), the cytotoxicity at 70.5 h was 21.4%.
Work on `COCCNC(=O)N1CCN(c2cc(F)ccc2F)CC1` yielded a cytotoxicity at 70.5 h of -10.1%.
In the case of `Cc1nc2ccnn2c(C)c1CCC(=O)N1CCC(C(N)=O)CC1`, the cytotoxicity at 70.5 h is reported as 2.4%.
